Test in all cases: NCI anticancer screen, dose series, 48 h
Test [1] has as its system SK-OV-3 ovarian.
In test [2] the test system is U251 CNS.
Test [3] concerns HOP-92 NSCLC.
Test [4] has as its system KM12 colon.
Test [5] relates to SNB-19 CNS.
For test [6], the system named is HCC-2998 colon.
Test [7] concerns HOP-62 NSCLC.
Test [8] relates to OVCAR-5 ovarian.
The subject of test [9] is NCI-H460 lung.
Test [10] deals with NCI/ADR-RES ovarian.

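How tested: cells in 96-well plates exposed to compound for 48 hours at five concentrations. GI50: concentration for 50% inhibition of growth. The concentration for full growth arrest is given as TGI.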 Bounds are passed on as bounds.

As to `CC1CC2C3CCC4=CC(=O)C=CC4(C)C3(F)C(O)CC2(C)C1(O)C(=O)COP(=O)(O)O` (stereo not given), the GI50 in [1], in [2], in test [3], in [4], in [5] and in test [6] was more than 500 µM each time. The GI50 in test [7], in test [8], in [9] and in [10] was more than 500 µM each time. For the same compound, the TGI in test [1], in test [2], in [3], in test [4], in test [5] and in [6] was more than 500 µM throughout. Moreover, the TGI in test [7], in [8], in test [9] and in [10] was more than 500 µM throughout.
`CCN1CCN(c2nc(C)cc(N(CCCNc3ccnc4cc(Cl)ccc34)Cc3ccc4c(c3)OCO4)n2)CC1`: the GI50 in test [1] was 2.58 µM; in test [2] it was 1.56 µM; in test [3], 1.15 µM; in [4], 2.42 µM; in test [5], 2.98 µM; in test [6], 1.62 µM. The GI50 was 1.46 µM in [7], 2.57 µM in test [8], 1.53 µM in [9] and 2.63 µM in test [10]. Further, the TGI in [1] is 6.7 µM; in [2], 3.17 µM; in test [3], 3.1 µM; in test [4], 10.8 µM; in test [5], 11.3 µM; in test [6], 3.85 µM. For the same compound, the TGI in test [7] was determined as 4.09 µM; in test [8], 7.77 µM; in [9], 3.54 µM; in [10], 10.1 µM.
With `COc1cc(CNCCCCCCN2C(=O)c3cccc4cccc(c34)C2=O)ccc1O`, the GI50 in test [1] is 12.3 µM; in [2], 4.51 µM; in test [3] it was 2.46 µM; in test [4] it was 5.57 µM; in test [5], 13.6 µM; in [6] it was 11.2 µM. Also, the GI50 in test [7] is 5.78 µM; in test [8] it was 14.1 µM; in [9], 3.71 µM; in [10], 10.4 µM. Besides, the TGI in test [1] amounted to 24.8 µM; in [2], 17.3 µM; in test [3], 17.5 µM; in [4] it was 18.9 µM; in test [5] it was 28.5 µM; in [6] it was 24.6 µM. Besides, the TGI worked out at 19.1 µM in test [7], 29 µM in [8], 15.9 µM in test [9] and 32.9 µM in test [10].
On to `O=C(O)C1=C/C(=C(/c2ccccc2)c2cc(C(=O)O)c(O)c3ccccc23)c2ccccc2C1=O`, for which the TGI in test [1], in test [2], in test [3], in test [4], in test [5] and in test [6] was more than 100 µM throughout. Moreover, the TGI in test [7], in test [8], in test [9] and in [10] was more than 100 µM each time.
Take `c1cc(N[C@@H]2CCNC2)nc(-c2cnc3ccc(-c4cn[nH]c4)cn23)c1`: the GI50 in test [1] was 7.8 µM; in [2], 3.11 µM; in test [3] it was 1.38 µM; in test [4] it was 0.868 µM; in test [5], 4.26 µM; in test [6], 9.95 µM. The GI50 in test [7] is 6.23 µM; in test [8], 6.06 µM; in test [9] it was 16.7 µM; in [10] it was more than 100 µM. The TGI was found to be 68.6 µM in test [1]; 18.3 µM in test [2]; 4.51 µM in [3]; 51.4 µM in [4]; 34.9 µM in test [5]; 35.5 µM in [6]. For the same compound, the TGI in test [7] was 29.6 µM; in test [8], more than 95.4 µM; in test [9] it was 80.3 µM; in test [10] it was more than 100 µM.
Take `COc1cc(/C=C2\C(=O)N(Cc3ccc(Cl)cc3)c3ccccc32)cc(OC)c1OC`: the GI50 was 6.82 µM in [1]; 1.75 µM in [2]; 1.64 µM in test [3]; 2.19 µM in [4]; 4.78 µM in test [5]; 1.95 µM in test [6]. Moreover, the GI50 in test [7] was 3.72 µM; in test [8], 3.38 µM; in test [9], 2.82 µM; in test [10] it was 2.85 µM. In addition, the TGI in [1] was more than 89.4 µM; in [2] it was 3.44 µM; in test [3], 5.74 µM; in test [4] it was 5.7 µM; in test [5], 18 µM; in test [6] it was 4.28 µM. In addition, the TGI in [7] came to 12.5 µM; in [8], 14.5 µM; in test [9], 8.38 µM; in test [10], 9.96 µM.
Take `COc1ccc2nc3cc(Cl)ccc3c(NCCCNCCO)c2c1`: the GI50 in test [1] is 0.635 µM; in test [2], 0.455 µM; in [3] it was 1.2 µM; in test [4] it was 0.498 µM; in test [5], 0.5 µM; in test [6], 0.609 µM. The GI50 in test [7] was 0.393 µM; in test [8] it was 0.531 µM; in test [9], 0.275 µM; in [10] it was 4.03 µM. For the same compound, the TGI in test [1] turned out to be 3.33 µM; in test [2], 2.12 µM; in test [3], 3.45 µM; in test [4], 2.81 µM; in [5], 3.79 µM; in test [6], 2.17 µM. The TGI in test [7] was determined as 2.14 µM; in test [8], 3.28 µM; in [9] it was 1.2 µM; in [10] it was 19.8 µM.

The values are drawn from PubChem BioAssay (NCI).
